The values that follow come from patent US9211325B2, “Peptide adjuvants” (priority 2008, dated 2015).

“Also recorded” adds a separate entry of the source.

In the assay the test system is H5N1 A\Hanoi\30408\2005. On the set-up: species or system BALB/c mice. Particulars: mouse, in vivo.

As for “KWCEC (Short peptide sequence not known to occur in nature) [5mer4]”, the “clinical signs of disease” value is given as “no clinical signs of disease”, the survival came out at 90%, the “survival (protected from death)” value is given as 50% and the weight loss result was “minimal weight loss; also recorded: no statistically significant weight loss”.
